Assays:
SMAD4 sgRNA = assay: Activity of sgRNA after incubation with small molecule anticancer agents (WB in Cas9-expressing SKOV3 cells); type: cell-based, human; conditions: for effect of co-incubation on SMAD4 sgRNA suppression: up to 24 h prior to transfection; for suppression of SMAD4 protein by sgRNA after coincubation: 12 h of coincubation, effective = levels <30% of baseline
Procedure: Activity of sgRNA after incubation with various small molecule anticancer agents: To determine the effects of platination or alkylation of sgRNA on silencing efficiency, SMAD4 sgRNA was first pre-incubated with various small molecules including Pt(II), Pt(IV)-COOH, doxorubicin, gemcitabine, camptothecin, or melphalan for either 12 h or 24 h, at 37° C., and at a drug to sgRNA molar ratio of 10:1 in RNase free water. The sgRNA was then purified by […] (Mw=3 kDa) and quantified by Nanodrop. The RNAi-MAX (Invitrogen, Thermo-fisher, USA) was utilized to transfect the reacted sgRNA (10 nM) into Cas9-expressing SKOV3 cells in 6-well plates. After 72 h, protein was recovered from cell lysates and analyzed by WB to quantify SMAD4 and GAPDH (product of a house-keeping gene; control) levels with respect to those of untreated cells. In addition, to compare the effects of Pt(II) and Pt(IV)-COOH interference with sgRNA-mediated recognition and target gene silencing by Cas9, various incubation periods were examined (i.e. 3, 6, and 9 h).

s-SMAD4 [1] = assay: Reactions of sgRNA with anticancer agents by MALDI/TOF MS; conditions: for adducts in the RNA macromolecule: 24 h of incubation; for time at which RNA adducts were formed: excess agent
Procedure: Determination of the reactions of sgRNA with anticancer agents by MALDI/TOF MS: A 20-mer of RNA comprising the seed region of SMAD4 sgRNA (s-SMAD4) was mixed with Pt(II), Pt(IV)-COOH, doxorubicin, gemcitabine, camptothecin or melphalan at a molar ratio of 1:10 in RNase free water (RNA final concentration (10 μM); small molecule (100 μM)). The reaction mixture was shaken in a 37° C. incubator for a prescribed time interval (30 min, 1 h, 3 h, 6 h, 9 h, 12 h, or 24 h); and, 10 μL of each solution was analyzed by MALDI/TOF MS (positive mode), employing hydroxipicolinic acid as the matrix.

5′-GMP = 5′-GMP binding with platinum species by 1HNMR
Procedure: The binding kinetics of 5′-GMP to each platinum species were determined by measuring the relative amounts of free and Pt-bound 5′-GMP at each time point, integrating the ratio of the ^1HNMR peaks at 8.5 ppm to 8.09 ppm.

s-SMAD4 [2] = assay: PicoGreen based melting temperature assay of s-SMAD4/ss-DNA heterodimer
Procedure: The Tm of the unreacted 20-mer and the ss-DNA (41° C.) resembled the calculated Tm of the heterodimer of the native SMAD4 sgRNA with DNA (43° C.).

s-SMAD4 [3] = assay: Kinetics of Pt-RNA adduct formation by AAS
BCL-2 siRNA [4] = assay: siRNA binding with platinum species by MALDI-TOF-MS; conditions: 10-fold excess of platinum species
Procedure: A single-stranded siRNA (UCAGGUACUCAGUCAUCCACATT) was mixed with OxaPt(II) at a molar ratio of 1:10 in RNAase free water (RNA final concentration: 50 μM; Pt final concentration: 500 μM; total volume: 100 μL). The reaction mixture was placed in a 37° C. incubator and 10 μL of sample were removed at various time points to obtain MALDI-TOF-MS spectra (positive model). Analogous methods were employed to obtain spectra of the reaction products of siRNA with OxaPt(IV), CisPt(II) and CisPt(IV).

Cytoplasmic RNA = conditions: upon intracellular uptake; cited from earlier work
BCL-2 siRNA [5] = assay: Silencing activity of BCL-2 siRNA preincubated with platinum species (qRT-PCR); type: cell-based; conditions: MCF-7 cells, RT-qPCR 48 h after transfection, pre-incubation 1 vs. 12 h
Procedure: 48 hours after transfection, total RNA was isolated using an RNeasy mini-kit (Qiagen, Germantown, Md.) and quantified by NanoDrop. 300 ng of mRNA were subsequently subjected to qRT-PCR analysis, targeting BCL-2 and glyceraldehyde 3-phosphate dehydrogenase (GAPDH) by using the SYBR Premix Ex (Takara, USA) and by using an Applied Biosystems StepOne Real-Time PCR System. Relative gene expression values were determined by the […] using StepOne Software v2.1 (Applied Biosystems). Data are presented as fold differences in […] normalized to GAPDH (house-keeping gene used as endogenous reference), employing a standard curve, and are reported relative to untreated (control) cells. The sequence of the primers used for BCL-2 and GAPDH are as follows: BCL-2 forward—5-[…]-3; Bcl-2 reverse—5-[…]-3; GAPDH forward—5-[…]-3; and GAPDH reverse primer—5-[…]-3 (Integrated DNA Technology. IW, USA). The specificity of each set of primers was verified by melting curve analysis.

Structure (SMILES)	effect of co-incubation on SMAD4 sgRNA suppression (SMAD4 sgRNA)	adducts in the RNA macromolecule (s-SMAD4 [1])	incubation time beyond which sgRNA was unable to prevent protein expression (SMAD4 sgRNA) [h]	suppression of SMAD4 protein by sgRNA after coincubation (SMAD4 sgRNA)	earliest time Pt-siRNA adducts detected (BCL-2 siRNA [4])	other results
Nc1ccn([C@@H]2O[C@H](CO)[C@@H](O)C2(F)F)c(=O)n1 [gemcitabine]	did not alter the ability of SMAD4 sgRNA to effectively suppress expression levels	no adducts were detected				
CC[C@@]1(O)C(=O)OCc2c1cc1n(c2=O)Cc2cc3ccccc3nc2-1 [camptothecin]	did not alter the ability of SMAD4 sgRNA to effectively suppress expression levels	no adducts were detected				
N.N.[Cl][Pt][Cl] [CisPt(II), cisplatin]			> 3	unable to effectively suppress expression of SMAD4 protein	≤ 30 m	formation of Pt(NH3)2(5′-GMP)2 adducts (5′-GMP; data not shown): rapid formation and time dependent increases; heterodimerization of pretreated s-SMAD4 with ss-DNA (s-SMAD4 [2]): could not heterodimerize with ss-DNA at any temperature; Pt atoms bound per RNA macromolecule (s-SMAD4 [3]): up to 6; RNA platinated (s-SMAD4 [3]; incubated for 1 h with >10 μM): > 50%; apparent second-order rate constant (s-SMAD4 [3]; pseudo-first order kinetics): > 10 µM⁻¹ s⁻¹; concentrations of Pt-RNA adducts relative to Pt-DNA adducts (Cytoplasmic RNA): 5-6 times; time at which RNA adducts were formed (s-SMAD4 [1]; aqueous solution, 37° C.): 30 min
COc1cccc2c1C(=O)c1c(O)c3c(c(O)c1C2=O)C[C@@](O)(C(=O)CO)C[C@@H]3O[C@H]1C[C@H](N)[C@H](O)[C@H](C)O1 [doxorubicin]	did not alter the ability of SMAD4 sgRNA to effectively suppress expression levels	physical association multimers in non-covalent complexes with RNA				
O=C1[O][Pt]2([NH][C@@H]3CCCC[C@H]3[NH]2)[O]C1=O [OxaPt(II), Oxaliplatin]					1 h	DACHPt(5′-GMP)2 adducts as share of the total 5′-GMP pool (5′-GMP; over the first 6 h, 10 mM 5′-GMP, 5 mM Pt, 37° C.): > 40%; effect of incubation with siRNA on silencing efficiency (BCL-2 siRNA [5]): concentration and time-dependent decrease in silencing efficiency
N[C@@H](Cc1ccc(N(CCCl)CCCl)cc1)C(=O)O [melphalan]			> 6	unable to effectively suppress expression of SMAD4 protein		time at which RNA adducts were formed (s-SMAD4 [1]): 60 min

Source: patent US11730826B2, “Amphiphilic nanoparticles for delivery of CRISPR based therapy” (Massachusetts Institute of Technology, priority 2016, dated 2023)
